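Tested at 5 concentrations; 48 h exposure; 96-well plates; endpoints linearly interpolated, else capped at highest concentration. The concentration for 50% growth inhibition is given as GI50. TGI: total growth inhibition.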
Columns and labels:
Assay in all cases: growth of human tumour cells (NCI), 48 h
A549 NSCLC = test system: A549 NSCLC
COLO 205 colon = test system: COLO 205 colon
HCT-15 colon = test system: HCT-15 colon
LOX IMVI melanoma = test system: LOX IMVI melanoma
M14 melanoma = test system: M14 melanoma
MALME-3M melanoma = test system: MALME-3M melanoma
MCF7 breast = test system: MCF7 breast
RXF 393 renal = test system: RXF 393 renal
SN12C renal = test system: SN12C renal
SR leukemia = test system: SR leukemia
TK-10 renal = test system: TK-10 renal
U251 CNS = test system: U251 CNS

Structure (SMILES) | TGI (A549 NSCLC) | TGI (COLO 205 colon) | TGI (HCT-15 colon) | TGI (LOX IMVI melanoma) | TGI (M14 melanoma) | TGI (MALME-3M melanoma) | TGI (MCF7 breast) | TGI (RXF 393 renal) | TGI (SN12C renal) | TGI (SR leukemia) | TGI (TK-10 renal) | TGI (U251 CNS) | GI50 (COLO 205 colon) | GI50 (HCT-15 colon) | GI50 (LOX IMVI melanoma) | GI50 (M14 melanoma) | GI50 (MALME-3M melanoma) | GI50 (RXF 393 renal) | GI50 (SR leukemia)
CC[C@]12C=CCN3CC[C@@]4(c5cc(Br)c(OC)cc5N(C)[C@H]4[C@@](O)(C(=O)N[C@@H](Cc4ccc(O)cc4)C(=O)OC)[C@@H]1O)[C@@H]32 | > 100 µM | 33.1 µM | 76.3 µM | 34.8 µM | 95.1 µM | 29.1 µM | > 100 µM | 38.4 µM | 37.9 µM | 46.4 µM | 79.5 µM | 27.8 µM | – | – | – | – | – | – | –
C[C@]12CC[C@H](O)CC1=CC[C@@H]1[C@@H]2CC[C@]2(C)C(=N/O)/C(=C/c3ccc([N+](=O)[O-])cc3)C[C@@H]12 | 17.7 µM | 15.7 µM | 29.8 µM | 21.5 µM | 21.1 µM | 22.1 µM | 18.2 µM | 15.6 µM | 7.14 µM | 22.5 µM | – | – | – | – | – | – | – | – | –
O=C(c1cc2c(c3ccccc13)NCCN=C2C(F)(F)F)C(F)(F)F | – | – | > 100 µM | 38.4 µM | 79.6 µM | – | > 100 µM | > 100 µM | – | 21.3 µM | 78 µM | 36.9 µM | – | – | – | – | – | – | –
CC(=O)NNC(=O)C1CCCCN1 (stereo not given) | > 100 µM | > 100 µM | > 100 µM | > 100 µM | > 100 µM | > 100 µM | > 100 µM | > 100 µM | > 100 µM | > 100 µM | > 100 µM | > 100 µM | – | – | – | – | – | – | –
O=C1C(Cl)C(c2cc3cc(Br)ccc3nc2Cl)N1c1ccc(Cl)cc1 (stereo not given) | > 25 µM | 10.2 µM | 13.3 µM | 3.38 µM | 20.9 µM | 8.91 µM | 7.47 µM | 10.6 µM | 8.8 µM | 7.46 µM | 13.3 µM | – | – | – | – | – | – | – | –
O=C(COc1ccc(Cl)c(Cl)c1)N(Cc1ccccc1)Cc1ccc[n+](Cc2ccc(Cl)cc2S(=O)(=O)F)c1 | > 100 µM | > 100 µM | > 100 µM | – | > 100 µM | 54.2 µM | > 100 µM | > 100 µM | > 100 µM | 52.4 µM | > 100 µM | > 100 µM | – | – | – | – | – | – | –
CC(C)(C)OC(=O)NC1CCC(C(C)(C)C)CC1 (stereo not given) | > 100 µM | > 100 µM | > 100 µM | > 100 µM | – | > 93.8 µM | > 100 µM | > 92.2 µM | > 100 µM | – | – | > 100 µM | – | – | – | – | – | – | –
Br/C(=N\Nc1nn[nH]n1)c1ccncc1 | > 100 µM | > 100 µM | > 100 µM | > 100 µM | > 100 µM | > 100 µM | > 100 µM | > 100 µM | > 100 µM | > 100 µM | > 100 µM | > 100 µM | – | – | – | – | – | – | –
CCCC(=O)O.CCCC(=O)O.CCCC(=O)O.CCCC(=O)O.[Rh].[Rh] | – | 0.0406 µM | 0.762 µM | 0.225 µM | 0.195 µM | 0.102 µM | – | 0.052 µM | – | 1.06 µM | – | – | 0.0186 µM | 0.155 µM | 0.104 µM | 0.0569 µM | 0.0309 µM | 0.0224 µM | 0.0586 µM
c1ccc(C[N+]23CN4CN(CN(C4)C2)C3)cc1 | 91.8 µM | 35.8 µM | > 100 µM | 48.2 µM | 39.8 µM | > 100 µM | 94.3 µM | 36.8 µM | > 100 µM | – | > 100 µM | 35.6 µM | – | – | – | – | – | – | –
O=C(Oc1ccc(Cl)cc1[N+](=O)[O-])c1ccccc1 | > 100 µM | > 100 µM | > 100 µM | > 100 µM | > 100 µM | > 100 µM | – | > 100 µM | > 100 µM | > 100 µM | > 100 µM | > 100 µM | – | – | – | – | – | – | –
O=C1OC2CC=CC1C2 (stereo not given) | > 100 µM | > 100 µM | > 100 µM | > 100 µM | – | > 100 µM | > 100 µM | > 100 µM | > 100 µM | – | – | > 100 µM | – | – | – | – | – | – | –

From PubChem BioAssay (NCI)
